In the supplement of paper PMC10307832:

Assays:
Experiment in all cases: relative viability (nuclei count vs DMSO), 5 days (fraction); higher = more cells survive
201T = system: 201T
Method in brief: (§1)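 Each reported value is a median over duplicate plates. It expresses relative viability: treated-well nuclei count divided by vehicle-well nuclei count. Lung cancer cell lines in 1536-well plates were dosed by pin tool a day after seeding, alone with one drug or with a fixed anchor-drug dose plus five library-drug doses (not always all listed) in √10 steps, and nuclei were counted after 5 days.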

COR-L23 = system: COR-L23
Method in brief: as §1

EPLC-272H = system: EPLC-272H
Method in brief: as §1

H3255 = system: H3255
Method in brief: as §1

HCC-15 = system: HCC-15
Method in brief: as §1

LOU-NH91 = system: LOU-NH91
Method in brief: as §1

NCI-H1563 = system: NCI-H1563
Method in brief: as §1

NCI-H1650 = system: NCI-H1650
Method in brief: as §1

NCI-H1734 = system: NCI-H1734
Method in brief: as §1

NCI-H1793 = system: NCI-H1793
Method in brief: as §1

NCI-H2023 = system: NCI-H2023
Method in brief: as §1

NCI-H2170 = system: NCI-H2170
Method in brief: as §1

NCI-H2347 = system: NCI-H2347
Method in brief: as §1

NCI-H2405 = system: NCI-H2405
Method in brief: as §1

NCI-H3122 = system: NCI-H3122
Method in brief: as §1

NCI-H322M = system: NCI-H322M
Method in brief: as §1

NCI-H441 = system: NCI-H441
Method in brief: as §1

NCI-H520 = system: NCI-H520
Method in brief: as §1

NCI-H647 = system: NCI-H647
Method in brief: as §1

PC-14 = system: PC-14
Method in brief: as §1

SW 900 = system: SW 900
Method in brief: as §1

UMC-11 = system: UMC-11
Method in brief: as §1

CCN(CC)CCCCNc1ncc2cc(-c3cc(OC)cc(OC)c3)c(NC(=O)NC(C)(C)C)nc2n1 + CCNC(=O)c1noc(-c2cc(C(C)C)c(O)cc2O)c1-c1ccc(CN2CCOCC2)cc1 [Luminespib] (partner 0.01 µM)
relative viability (201T; first compound 0.01 µM): 1.09
relative viability (201T; first compound 0.03162 µM): 0.955
relative viability (201T; first compound 0.1 µM): 1.11
relative viability (201T; first compound 0.3162 µM): 1.08
relative viability (201T; first compound 1 µM): 0.932
relative viability (COR-L23; first compound 0.01 µM): 0.799
relative viability (COR-L23; first compound 0.03162 µM): 0.707
relative viability (COR-L23; first compound 0.1 µM): 0.955
relative viability (COR-L23; first compound 0.3162 µM): 1.03
relative viability (COR-L23; first compound 1 µM): 0.639
relative viability (EPLC-272H; first compound 0.01 µM): 0.26
relative viability (EPLC-272H; first compound 0.03162 µM): 0.266
relative viability (EPLC-272H; first compound 0.1 µM): 0.204
relative viability (EPLC-272H; first compound 0.3162 µM): 0.219
relative viability (EPLC-272H; first compound 1 µM): 0.329
relative viability (H3255; first compound 0.01 µM): 0.73
relative viability (H3255; first compound 0.03162 µM): 0.824
relative viability (H3255; first compound 0.1 µM): 0.915
relative viability (H3255; first compound 0.3162 µM): 0.992
relative viability (H3255; first compound 1 µM): 0.833
relative viability (HCC-15; first compound 0.01 µM): 0.251
relative viability (HCC-15; first compound 0.03162 µM): 0.257
relative viability (HCC-15; first compound 0.1 µM): 0.348
relative viability (HCC-15; first compound 0.3162 µM): 0.422
relative viability (HCC-15; first compound 1 µM): 0.266
relative viability (LOU-NH91; first compound 0.01 µM): 0.338
relative viability (LOU-NH91; first compound 0.03162 µM): 0.364
relative viability (LOU-NH91; first compound 0.1 µM): 0.36
relative viability (LOU-NH91; first compound 0.3162 µM): 0.421
relative viability (LOU-NH91; first compound 1 µM): 0.356
relative viability (NCI-H1563; first compound 0.01 µM): 0.537
relative viability (NCI-H1563; first compound 0.03162 µM): 0.532
relative viability (NCI-H1563; first compound 0.1 µM): 0.549
relative viability (NCI-H1563; first compound 0.3162 µM): 0.597
relative viability (NCI-H1563; first compound 1 µM): 0.545
relative viability (NCI-H1650; first compound 0.01 µM): 0.227
relative viability (NCI-H1650; first compound 0.03162 µM): 0.214
relative viability (NCI-H1650; first compound 0.1 µM): 0.204
relative viability (NCI-H1650; first compound 0.3162 µM): 0.206
relative viability (NCI-H1650; first compound 1 µM): 0.203
relative viability (NCI-H1734; first compound 0.01 µM): 0.0982
relative viability (NCI-H1734; first compound 0.03162 µM): 0.189
relative viability (NCI-H1734; first compound 0.1 µM): 0.19
relative viability (NCI-H1734; first compound 0.3162 µM): 0.197
relative viability (NCI-H1734; first compound 1 µM): 0.178
relative viability (NCI-H1793; first compound 0.01 µM): 0.345
relative viability (NCI-H1793; first compound 0.03162 µM): 0.198
relative viability (NCI-H1793; first compound 0.1 µM): 0.166
relative viability (NCI-H1793; first compound 0.3162 µM): 0.157
relative viability (NCI-H1793; first compound 1 µM): 0.156
relative viability (NCI-H2023; first compound 0.01 µM): 0.663
relative viability (NCI-H2023; first compound 0.03162 µM): 1.05
relative viability (NCI-H2023; first compound 0.1 µM): 0.745
relative viability (NCI-H2023; first compound 0.3162 µM): 0.833
relative viability (NCI-H2023; first compound 1 µM): 0.545
relative viability (NCI-H2170; first compound 0.01 µM): 0.446
relative viability (NCI-H2170; first compound 0.03162 µM): 0.857
relative viability (NCI-H2170; first compound 0.1 µM): 0.668
relative viability (NCI-H2170; first compound 0.3162 µM): 0.801
relative viability (NCI-H2170; first compound 1 µM): 0.937
relative viability (NCI-H2347; first compound 0.01 µM): 0.675
relative viability (NCI-H2347; first compound 0.03162 µM): 0.341
relative viability (NCI-H2347; first compound 0.1 µM): 0.447
relative viability (NCI-H2347; first compound 0.3162 µM): 0.372
relative viability (NCI-H2347; first compound 1 µM): 0.526
relative viability (NCI-H2405; first compound 0.01 µM): 0.649
relative viability (NCI-H2405; first compound 0.03162 µM): 0.644
relative viability (NCI-H2405; first compound 0.1 µM): 0.76
relative viability (NCI-H2405; first compound 0.3162 µM): 0.654
relative viability (NCI-H2405; first compound 1 µM): 0.684
relative viability (NCI-H3122; first compound 0.01 µM): 0.0914
relative viability (NCI-H3122; first compound 0.03162 µM): 0.082
relative viability (NCI-H3122; first compound 0.1 µM): 0.112
relative viability (NCI-H3122; first compound 0.3162 µM): 0.0822
relative viability (NCI-H3122; first compound 1 µM): 0.127
relative viability (NCI-H322M; first compound 0.01 µM): 0.884
relative viability (NCI-H322M; first compound 0.03162 µM): 0.854
relative viability (NCI-H322M; first compound 0.1 µM): 0.859
relative viability (NCI-H322M; first compound 0.3162 µM): 0.988
relative viability (NCI-H322M; first compound 1 µM): 0.799
relative viability (NCI-H441; first compound 0.01 µM): 0.313
relative viability (NCI-H441; first compound 0.03162 µM): 0.422
relative viability (NCI-H441; first compound 0.1 µM): 0.344
relative viability (NCI-H441; first compound 0.3162 µM): 0.353
relative viability (NCI-H441; first compound 1 µM): 0.362
relative viability (NCI-H520; first compound 0.01 µM): 0.203
relative viability (NCI-H520; first compound 0.03162 µM): 0.228
relative viability (NCI-H520; first compound 0.1 µM): 0.229
relative viability (NCI-H520; first compound 0.3162 µM): 0.289
relative viability (NCI-H520; first compound 1 µM): 0.207
relative viability (NCI-H647; first compound 0.01 µM): 0.163
relative viability (NCI-H647; first compound 0.03162 µM): 0.205
relative viability (NCI-H647; first compound 0.1 µM): 0.222
relative viability (NCI-H647; first compound 0.3162 µM): 0.205
relative viability (NCI-H647; first compound 1 µM): 0.148
relative viability (PC-14; first compound 0.01 µM): 0.138
relative viability (PC-14; first compound 0.03162 µM): 0.126
relative viability (PC-14; first compound 0.1 µM): 0.176
relative viability (PC-14; first compound 0.3162 µM): 0.141
relative viability (PC-14; first compound 1 µM): 0.138
relative viability (SW 900; first compound 0.01 µM): 0.172
relative viability (SW 900; first compound 0.03162 µM): 0.182
relative viability (SW 900; first compound 0.3162 µM): 0.15
relative viability (SW 900; first compound 1 µM): 0.188
relative viability (UMC-11; first compound 0.01 µM): 1.05
relative viability (UMC-11; first compound 0.03162 µM): 1.08
relative viability (UMC-11; first compound 0.1 µM): 1.25
relative viability (UMC-11; first compound 0.3162 µM): 1.04
relative viability (UMC-11; first compound 1 µM): 0.94
